Experimental data reported in patent US10059694B2, “2-aminopyrimidine compound and pharmaceutical composition and use thereof” (Shanghai Institute of Materia Medica, Chinese Academy of …, priority 2014, dated 2018).
pIC50: −log10 of the molar value.

Experiments:
EGFR^wt = target: T1, EGFR^wt (Homo sapiens, UniProt P00533); assay: kinase inhibitory activity test (ELISA), EGFR^WT; type: biochemical; conditions: ATP 5 μM, 1 hour at 37° C.
T1 construct: purchased Millipore
Procedure, shortened: (§1)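 ELISA on poly(Glu,Tyr)4:1-coated plates; kinase reaction with 5 μM ATP (final) in 50 mM HEPES pH 7.4, 50 mM MgCl2, 5 mM MnCl2, 0.2 mM Na3VO4, 1 mM DTT, 1 h at 37° C. Phosphotyrosine detected via PY99/HRP and OPD at 490 nm; IC50 by four-parameter fit.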

[1] = system: human epidermal carcinoma A431 cell line; assay: SRB proliferation assay, A431 cells; type: cell-based; conditions: A-431, SRB, 72 h, read-out: IC50 A431
Procedure, shortened: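 A431 cells in log phase are allowed to adhere for 24 h, then exposed to compound for 72 h in triplicate alongside DMSO controls. Cells are fixed with cold 10% TCA, stained with SRB, dye is solubilised in 10 mM Tris pH 10.5, and OD is read at 515 nm.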

EGFR^T790M/L858R = target: T2, EGFR^T790M/L858R (Homo sapiens, UniProt P00533, L858R/T790M); assay: kinase inhibitory activity test (ELISA), EGFR^T790M/L858R; type: biochemical
T2 construct: purchased Millipore
T2 sequence (P00533 25-1210 T790M/L858R): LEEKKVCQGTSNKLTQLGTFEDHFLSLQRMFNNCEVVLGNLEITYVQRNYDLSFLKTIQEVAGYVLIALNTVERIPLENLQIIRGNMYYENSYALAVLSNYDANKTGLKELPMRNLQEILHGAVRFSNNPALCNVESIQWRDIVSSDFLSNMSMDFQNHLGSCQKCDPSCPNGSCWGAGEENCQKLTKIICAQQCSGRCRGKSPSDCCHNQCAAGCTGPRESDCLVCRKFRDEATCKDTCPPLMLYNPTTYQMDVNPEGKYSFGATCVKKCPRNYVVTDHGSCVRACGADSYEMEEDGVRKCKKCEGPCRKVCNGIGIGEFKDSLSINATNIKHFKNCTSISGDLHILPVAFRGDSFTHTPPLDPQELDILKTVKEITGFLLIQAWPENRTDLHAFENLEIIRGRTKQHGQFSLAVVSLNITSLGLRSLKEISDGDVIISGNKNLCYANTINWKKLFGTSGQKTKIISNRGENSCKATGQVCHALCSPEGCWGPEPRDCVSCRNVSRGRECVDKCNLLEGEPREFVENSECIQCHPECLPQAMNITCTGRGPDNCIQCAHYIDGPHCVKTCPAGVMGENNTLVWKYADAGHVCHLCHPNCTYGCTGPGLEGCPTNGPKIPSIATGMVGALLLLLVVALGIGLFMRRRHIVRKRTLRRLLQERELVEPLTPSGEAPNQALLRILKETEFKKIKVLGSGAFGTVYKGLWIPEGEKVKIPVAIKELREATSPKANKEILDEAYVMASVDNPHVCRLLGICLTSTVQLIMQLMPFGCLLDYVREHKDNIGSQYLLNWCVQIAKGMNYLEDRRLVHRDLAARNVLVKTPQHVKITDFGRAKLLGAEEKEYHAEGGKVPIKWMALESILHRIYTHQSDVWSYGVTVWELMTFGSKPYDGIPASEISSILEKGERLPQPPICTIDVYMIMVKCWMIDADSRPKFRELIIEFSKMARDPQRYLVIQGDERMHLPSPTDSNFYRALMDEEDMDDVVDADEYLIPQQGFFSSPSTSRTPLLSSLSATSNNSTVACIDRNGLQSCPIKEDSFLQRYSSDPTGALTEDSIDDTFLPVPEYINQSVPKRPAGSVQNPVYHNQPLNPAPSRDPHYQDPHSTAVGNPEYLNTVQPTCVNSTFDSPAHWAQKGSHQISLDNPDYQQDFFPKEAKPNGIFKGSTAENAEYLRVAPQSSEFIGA
Procedure, shortened: as §1

T1 sequence (P00533 25-1210): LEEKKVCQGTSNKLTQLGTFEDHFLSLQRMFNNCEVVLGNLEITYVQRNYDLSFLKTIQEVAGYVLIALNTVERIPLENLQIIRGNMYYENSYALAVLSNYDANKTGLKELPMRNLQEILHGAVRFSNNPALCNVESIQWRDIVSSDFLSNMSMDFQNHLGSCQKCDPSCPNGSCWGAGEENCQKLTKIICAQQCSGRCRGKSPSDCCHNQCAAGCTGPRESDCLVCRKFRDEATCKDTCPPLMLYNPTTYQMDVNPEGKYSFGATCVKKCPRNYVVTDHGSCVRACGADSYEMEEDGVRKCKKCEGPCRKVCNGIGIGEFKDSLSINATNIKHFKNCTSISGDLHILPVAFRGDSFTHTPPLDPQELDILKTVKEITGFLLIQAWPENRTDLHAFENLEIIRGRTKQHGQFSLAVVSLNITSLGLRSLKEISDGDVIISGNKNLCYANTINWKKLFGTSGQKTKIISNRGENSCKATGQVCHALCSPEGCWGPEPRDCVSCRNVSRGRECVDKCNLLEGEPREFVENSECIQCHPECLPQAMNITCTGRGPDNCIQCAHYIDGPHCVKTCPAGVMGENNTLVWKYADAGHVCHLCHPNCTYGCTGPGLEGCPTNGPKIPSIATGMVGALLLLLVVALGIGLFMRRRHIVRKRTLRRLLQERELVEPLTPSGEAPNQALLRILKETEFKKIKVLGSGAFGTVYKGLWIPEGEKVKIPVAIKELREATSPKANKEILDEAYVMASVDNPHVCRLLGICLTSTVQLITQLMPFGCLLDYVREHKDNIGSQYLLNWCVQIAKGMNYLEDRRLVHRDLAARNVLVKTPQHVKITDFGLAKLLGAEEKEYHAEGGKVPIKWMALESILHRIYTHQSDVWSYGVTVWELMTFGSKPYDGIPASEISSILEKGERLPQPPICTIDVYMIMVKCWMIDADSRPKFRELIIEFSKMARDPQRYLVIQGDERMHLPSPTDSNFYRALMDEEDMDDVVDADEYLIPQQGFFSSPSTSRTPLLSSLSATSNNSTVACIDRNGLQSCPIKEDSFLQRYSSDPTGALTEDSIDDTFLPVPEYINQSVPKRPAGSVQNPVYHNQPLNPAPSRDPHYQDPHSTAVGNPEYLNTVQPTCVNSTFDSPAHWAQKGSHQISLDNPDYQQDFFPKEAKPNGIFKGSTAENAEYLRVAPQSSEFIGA

pIC50 (EGFR^wt): 8.03
pIC50 [1]: 6.87
pIC50 (EGFR^T790M/L858R; ELISA, ATP 5 μM, 1 hour at 37° C.): 9.40
kinase inhibitory activity (in words) (EGFR^T790M/L858R; summary of Table 1): potent
Compound: C=CC(=O)Nc1cc(Nc2ncc(Cl)c(Nc3ccc4ccccc4c3)n2)c(OC)cc1N(C)CCN(C)C [CCB120067, N-((5-((5-chloro-4-((naphthalen-2-yl)amino))pyrimidin-2-yl)amino)-2-((N-methyl-N-dimethylaminoethyl)amino)-4-methoxyphenyl)acrylamide]
